Data on 26 compounds can be found in patent US20060178513A1, “Pyridinylanilides” (priority 2003, published 2006).

Data set [1] is described as follows: logP determination by HPLC (reversed-phase C 18), EEC Directive 79/831 Annex V.A8. It is filed as physicochemical. The protocol:
The logP values given in the Preparation Examples were determined in accordance with EEC Directive 79/831 Annex V.A8 by HPLC (High Performance Liquid Chromatography) using a reversed-phase column (C 18). Temperature: 43° C. Mobile phases for the determination in the acidic range: 0.1% aqueous phosphoric acid, acetonitrile; linear gradient from 10% acetonitrile to 90% acetonitrile. Calibration was carried out using straight-chain alkan-2-ones (having 3 to 16 carbon atoms) with known logp values (determination of the logp values by the retention times using linear interpolation between two successive alkanones).

In data set [2] the test system is Venturia inaequalis. Nature of the data set: Venturia Test (Apple)/protective. The settings on record: topical, 240 h, apple plants, protective, application rate 100 g/ha, evaluation 10 days after inoculation, read-out: Efficacy in %. It is filed as in vivo. The protocol:
[table] To produce a suitable preparation of the active compound, 1 part by weight of active compound is mixed with the stated amounts of solvents and emulsifier, and the concentrate is diluted with water to the desired concentration. To test for protective activity, young plants are sprayed with the preparation of active compound at the stated application rate. After the spray coating has dried on, the plants are inoculated with an aqueous conidia suspension of the apple scab pathogen Venturia inaequalis and then remain in an incubation cabin at about 20° C. and 100% relative atmospheric humidity for 1 day. The plants are then placed in a greenhouse at about 21° C. and a relative atmospheric humidity of about 90%. Evaluation is carried out 10 days after the inoculation. 0% means an efficacy which corresponds to that of the control, whereas an efficacy of 100% means that no infection is observed.

Data set [3] relates to Pyrenophora teres. Nature of the data set: Pyrenophora teres test (barley)/protective. The format is in vivo. The settings on record: barley plants, protective, application rate 500 g/ha, evaluation 8 days after inoculation. The protocol:
(§1) [table] To produce a suitable preparation of active compound, 1 part by weight of active compound is mixed with the stated amount of solvent and emulsifier, and the concentrate is diluted with water to the desired concentration. To test for protective activity, young plants are sprayed with the preparation of active compound at the stated application rate. After the spray coating has dried on, the plants are sprayed with a conidia suspension of Pyrenophora teres. The plants remain in an incubation cabin at 20° C. and 100% relative atmospheric humidity for 48 hours. The plants are then placed in a greenhouse at a temperature of about 20° C. and a relative atmospheric humidity of about 80%. Evaluation is carried out 8 days after the inoculation. 0% means an efficacy which corresponds to that of the control, whereas an efficacy of 100% means that no infection is observed.

The test system of data set [4] is Podosphaera leucotricha. Nature of the data set: Podosphaera test (apple)/protective. It is filed as in vivo. The settings on record: topical, 240 h, apple plants, protective, application rate 100 g/ha, evaluation 10 days after inoculation, read-out: Efficacy in %. The protocol:
[table] To produce a suitable preparation of active compound, 1 part by weight of active compound is mixed with the stated amounts of solvent and emulsifier, and the concentrate is diluted with water to the desired concentration. To test for protective activity, young plants are sprayed with the preparation of active compound at the stated application rate. After the spray coating has dried on, the plants are inoculated with an aqueous spore suspension of the apple mildew pathogen Podosphaera leucotricha. The plants are then placed in a greenhouse at about 23° C. and a relative atmospheric humidity of about 70%. Evaluation is carried out 10 days after the inoculation. 0% means an efficacy which corresponds to that of the control, whereas an efficacy of 100% means that no infection is observed.

Data set [5] relates to Puccinia recondita. As to the kind of experiment: Puccinia test (wheat)/protective. The settings on record: wheat plants, protective, application rate 500 g/ha, evaluation 10 days after inoculation. The format is in vivo. Here is the method:
as §1, with “stated amounts” for “stated amount”, “of Puccinia recondita.” for “of Pyrenophora teres.”, “of approximately” for “of about”, “of 80% to promote the development of rust pustules.” for “of about 80%.”, “out 10” for “out 8”

Data set [6] concerns Alternaria solani. Nature of the data set: Alternaria test (tomato)/protective. The format is in vivo. The settings on record: tomato plants, protective, application rate 750 g/ha, evaluation 7 days after inoculation. Here is the method: [table] To produce a suitable preparation of active compound, 1 part by weight of active compound is mixed with the stated amounts of solvent and emulsifier, and the concentrate is diluted with water to the desired concentration. To test for protective activity, young tomato plants are sprayed with the preparation of active compound at the stated application rate. 1 day after the treatment, the plants are inoculated with a spore suspension of Alternaria solani and then remain at 100% rel. humidity and 20° C. for 24 h. The plants then remain at 96% rel. atmospheric humidity and a temperature of 20° C. Evaluation was carried out 7 days after the inoculation. 0% means an efficacy which corresponds to that of the control, whereas an efficacy of 100% means that no infection is observed.

Where [7] appears, read: reversed-phase HPLC column (C 18), HPLC, reversed-phase C 18, 43° C., acidic range (0.1% aqueous phosphoric acid/acetonitrile), read-out: logP.
Where [8] appears, read: reversed-phase HPLC column (C 18), pH 2.3, HPLC, reversed-phase C 18, 43° C., read-out: log P (pH 2.3).

The structures appear in SMILES notation. Like-named read-outs stand apart in the source and are kept apart here.

With `Cn1cc(C(=O)Nc2ccccc2-c2ccc(Cl)cn2)c(C(F)F)n1` [1-8-14], the chromatographic logP in data set [1] (setting [7]) is 3.05. The pest or weed control at 100 g/ha in data set [2] amounted to 100%. In data set [3], this compound registered an Efficacy in % of 94%.
As to `O=C(Nc1ccccc1-c1ccc(Cl)cn1)c1cccnc1Cl` [1-8-10], the chromatographic logP in data set [1] (setting [7]) is 2.95. The pest or weed control at 100 g/ha in data set [4] and in data set [2] was 100% each time. Besides, the figures for the Efficacy in % in data set [3] and in data set [5] were 100% and 94%, respectively.
On to `Cc1occc1C(=O)Nc1ccccc1-c1ncc(C(F)(F)F)cc1Cl` [1-8-2], for which the chromatographic logP in data set [1] (setting [7]) turned out to be 3.44. Besides, the Efficacy in % in data set [6], in data set [3] and in data set [5] was 100% each time.
As to `O=C(Nc1ccccc1-c1ncc(C(F)(F)F)cc1Cl)C1=C(C(F)(F)F)OCCS1` [1-8-25], in data set [1] (setting [7]), the chromatographic logP was 3.43. Further, the pest or weed control at 100 g/ha in data set [2] amounted to 99%.
For the compound `O=C(Nc1ccccc1I)c1ccccc1C(F)(F)F` [IV-1], the chromatographic logP in data set [1] (setting [8]) was determined as 2.98.
`CON=Cc1ccc(-c2ccccc2NC(=O)c2cccnc2Cl)nc1` [1-8-15, 2-chloro-N-{2-[5-(E)methoxyimino-methyl)-pyridin-2-yl]-phenyl}-nicotinamide]: the chromatographic logP in data set [1] (setting [7]) and in data set [1] (setting [8]) was 2.95 each time.
On to `O=C(Nc1ccccc1-c1ncc(C(F)(F)F)cc1Cl)c1ccccc1Br` [1-8-21], for which the chromatographic logP in data set [1] (setting [7]) is 3.49. Besides, the pest or weed control at 100 g/ha in data set [4] worked out at 100%.
Regarding `Cc1nn(C)c(F)c1C(=O)Nc1ccccc1-c1ccc(Cl)cn1` [1-8-11], the chromatographic logP in data set [1] (setting [7]) is 3.06. The figures for the pest or weed control at 100 g/ha in data set [4] and in data set [2] were 95% and 100%, respectively.
Turning to `Cc1nc(C(F)(F)F)c(C(=O)Nc2ccccc2-c2ncc(C(F)(F)F)cc2Cl)s1` [1-8-28], the chromatographic logP in data set [1] (setting [7]) was found to be 3.48. Besides, the pest or weed control at 100 g/ha in data set [4] came to 96%; in data set [2] it was 98%.
For `Cn1cc(C(=O)Nc2ccccc2-c2ccnc(Br)c2)c(C(F)F)n1` [1-7-6], in data set [1] (setting [7]), the chromatographic logP worked out at 2.13. Further, the Efficacy in % was 95% in data set [6], 93% in data set [3] and 100% in data set [5].
For the compound `O=C(Nc1ccccc1-c1ccc(C(F)(F)F)cn1)c1ccccc1C(F)(F)F` [1-8-9], the chromatographic logP in data set [1] (setting [7]) is 4.13. Further, the pest or weed control at 100 g/ha in data set [4] amounted to 97%. Also, in data set [6], the Efficacy in % was 95%.
As for `Cc1nc(C(F)(F)F)c(C(=O)Nc2ccccc2-c2cc(Cl)nc(Cl)c2)s1` [1-7-10], the chromatographic logP in data set [1] (setting [7]) is 3.27. The pest or weed control at 100 g/ha in data set [4] and in data set [2] was 100% throughout. In data set [6], this compound yielded an Efficacy in % of 100%.
Regarding `Cn1cc(C(=O)Nc2ccccc2-c2ncc(C(F)(F)F)cc2Cl)c(C(F)(F)F)n1` [1-8-29], in data set [1] (setting [7]), the chromatographic logP was determined as 3.13. Also, the pest or weed control at 100 g/ha in data set [2] came out at 98%.
For the compound `Nc1ccccc1-c1ncc(C(F)(F)F)cc1Cl` [III-1, 2-[3-chloro-5-(trifluoromethyl)-2-pyridinyl]aniline], the chromatographic logP in data set [1] (setting [8]) came to 2.79.
With `Cn1cc(C(=O)Nc2ccccc2-c2ncc(C(F)(F)F)cc2Cl)c(C(F)F)n1` [1-8-27], the chromatographic logP in data set [1] (setting [7]) worked out at 2.91. Further, the results for the pest or weed control at 100 g/ha in data set [4] and in data set [2] were 97% and 100%, respectively.
Take `Cn1nc(C(F)(F)F)c(C(=O)Nc2ccccc2-c2cc(Cl)nc(Cl)c2)c1F` [1-7-9]: the pest or weed control at 100 g/ha in data set [2] was 100%.
Take `Cn1cc(C(=O)Nc2ccccc2-c2ncc(C(F)(F)F)cc2Cl)c(I)n1` [1-8-30]: in data set [1] (setting [7]), the chromatographic logP worked out at 2.92. Further, the pest or weed control at 100 g/ha in data set [2] stood at 92%.
With `CO/N=C/c1ccc(-c2ccccc2N)nc1` [III-2, 6-(2-amino-phenyl)-pyridine-3-carbaldehyde (E)-O-methyl-oxime], the chromatographic logP in data set [1] (setting [8]) was 1.59.
For the compound `Cc1ccsc1C(=O)Nc1ccccc1-c1ncc(C(F)(F)F)cc1Cl` [1-8-3], the chromatographic logP in data set [1] (setting [7]) worked out at 3.83. Besides, the pest or weed control at 100 g/ha in data set [4] and in data set [2] was 100% in each case. In addition, the Efficacy in % in data set [6] is on record as 95%; in data set [3] it was 100%; in data set [5], 100%.
Take `Cn1cc(C(=O)Nc2ccccc2-c2ccc(Cl)nc2)c(C(F)F)n1` [1-6-7]: in data set [1] (setting [7]), the chromatographic logP came out at 2.1. Moreover, in data set [4], the pest or weed control at 100 g/ha turned out to be 98%.
Consider `O=C(Nc1ccccc1-c1ncc(C(F)(F)F)cc1Cl)c1ccccc1C(F)(F)F` [1-8-1], for which the chromatographic logP in data set [1] (setting [7]) came to 3.59; in data set [1] (setting [8]) it was 3.58. Moreover, the pest or weed control at 100 g/ha in data set [4] and in data set [2] was 100% in each case. Also, the Efficacy in % in data set [5] is reported as 100%.
Regarding `O=C(Nc1ccccc1-c1ncc(C(F)(F)F)cc1Cl)c1ccccc1Cl` [1-8-20], the chromatographic logP in data set [1] (setting [7]) was 3.45. Also, in data set [4], the pest or weed control at 100 g/ha was found to be 100%.
Take `O=C(Nc1ccccc1-c1ccnc(Br)c1)c1ccccc1C(F)(F)F` [1-7-5]: in data set [1] (setting [7]), the chromatographic logP turned out to be 2.85. This compound displayed an Efficacy in % in data set [3] of 93%.
Turning to `Cc1nn(C)c(F)c1C(=O)Nc1ccccc1-c1ccnc(Br)c1` [1-7-4], the chromatographic logP in data set [1] (setting [7]) was 2.02. The Efficacy in % in data set [3] was determined as 93%; in data set [5], 100%.
On to `CO/N=C/c1ccc(Br)nc1` [VII-1, 6-bromo-pyridine-3-carbaldehyde (E)-O-methyl-oxime], for which, in data set [1] (pH 2.3), the chromatographic logP worked out at 2.16.
In the case of `O=C(Nc1ccccc1-c1ccc(Cl)cn1)c1ccccc1C(F)(F)F` [1-8-12], the chromatographic logP in data set [1] (setting [7]) was determined as 4. The pest or weed control at 100 g/ha in data set [4] was found to be 92%; in data set [2], 100%.
